Test results: patent US12582645B2, “Chemokine CXCR4 receptor modulators and uses related thereto” (Emory University, priority 2017, dated 2026)

Target: T1, CXCR4 (Homo sapiens, UniProt P61073)
T1 construct: Human T lymphoblast cells (CCRF-CEM) expressing endogenous CXCR4 receptors; endogenous in cells; host or cells: CCRF-CEM (human T lymphoblast cells)
Experiment: CXCR4-CEM calcium flux assay, antagonist mode (inhibition of SDF-1α-induced calcium flux)
Format: cell-based
Conditions: CCRF-CEM cells expressing endogenous CXCR4, stimulated with 4 nM SDF-1α, read-out: CXCR4 Ca^2+ Flux IC50
Description: CXCR4-CEM Calcium Flux Assays
Exemplary compounds of the invention were tested for their ability to induce or inhibit calcium flux in CCRF-CEM cells, a human cell line that endogenously expresses CXCR4. Activation of CXCR4 stimulates G protein signaling which, in CCRF-CEM cells, causes a series of downstream events that leads to the release of intracellular calcium stores, or calcium flux. Calcium ion concentrations can be easily measured using a wide variety of […] calcium indicators and, as a result, calcium flux assays are commonly employed methods for measuring G protein-coupled receptor (GPCR) activity. Because the therapeutic potential of CXCR4 antagonists as anti-cancer agents likely relies on their ability to inhibit CXCR4-mediated G protein signaling, this assay was utilized as a first-pass measure of inhibitor potency.
The cells were then equilibrated to room temperature for 30 minutes before assay. […] For “antagonist mode” assessment, the cells are subsequently incubated for 25 minutes at room temperature. SDF-1α (R&D System Cat #350-NS/CF) was then added at a final concentration of 4 nM to stimulate the cells. Inhibition of SDF-1α-induced calcium flux was monitored by FDSS6000 for 90 seconds.
After correcting for background, EC50 values were determined. […] Inhibition data for the test compound over a range of concentrations was plotted as percentage inhibition of the test compound as compared to an internal control compound.

T1 sequence (P61073 whole entry): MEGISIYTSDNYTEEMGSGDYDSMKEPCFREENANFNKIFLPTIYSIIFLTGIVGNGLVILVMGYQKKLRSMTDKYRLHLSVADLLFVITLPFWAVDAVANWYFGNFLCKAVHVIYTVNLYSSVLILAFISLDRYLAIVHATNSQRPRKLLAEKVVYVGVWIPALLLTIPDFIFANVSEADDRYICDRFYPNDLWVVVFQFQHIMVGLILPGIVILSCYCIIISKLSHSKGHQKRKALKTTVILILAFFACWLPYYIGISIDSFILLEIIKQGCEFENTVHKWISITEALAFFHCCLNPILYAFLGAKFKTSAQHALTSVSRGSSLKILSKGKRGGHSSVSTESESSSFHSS

Row | Compound | IC50 [nM]
1 | C[C@@H](c1ccccn1)N(C[C@H]1Cc2ccccc2CN1)C[C@H]1Cc2ccccc2CN1 [EMU065, (S)-1-(pyridin-2-yl)-N,N-bis(((R)-1,2,3,4-tetrahydroisoquinolin-3-yl)methyl)ethanamine] | 1100
2 | CN1CCN(c2ccccc2CN2CCNC(CN(C)[C@H]3CCCc4cccnc43)C2)CC1 (stereo partly drawn) [EMU070, (8S)—N-methyl-N-((4-(2 (4-methylpiperazin-1-yl)benzyl)piperazin-2-yl)methyl)-5,6,7,8-tetrahydroquinolin-8-amine] | 6270
3 | N[C@H]1CC[C@H](CN(C[C@H]2Cc3ccccc3CN2)[C@H]2CCCc3cccnc32)CC1 [EMU074] | 284
4 | CC(C)(CCN)CN(C[C@H]1Cc2ccccc2CN1)[C@H]1CCCc2cccnc21 [EMU075] | > 33300
5 | CN(C[C@H]1Cc2c(cccc2N[C@H]2CC[C@H](N)CC2)CN1)[C@H]1CCCc2cccnc21 [EMU089] | 755
6 | CN1CCN(c2cccc3c2CC(CN(C)[C@H]2CCCc4cccnc42)N(C)C3)CC1 (stereo partly drawn) [EMU090] | 171
7 | NCc1cccc(CN(C[C@H]2Cc3ccccc3CN2)[C@H]2CCCc3cccnc32)c1 [EMU094, (S)—N-(3-(aminomethyl)benzyl)-N—(((R)-1,2,3,4-tetrahydroisoquinolin-3-yl)methyl)-5,6,7,8-tetrahydroquinolin-8-amine] | 292
8 | NCCCCN(Cc1cscn1)C[C@H]1Cc2ccccc2CN1 [EMU104, (R)—N1-((1,2,3,4-tetrahydroisoquinolin-3-yl)methyl)-N1-(thiazol-4-ylmethyl)butane-1,4-diamine] | ~16600
9 | Cc1cnc(CN(C)C[C@H]2Cc3c(cccc3N3CCNCC3)CN2)c(C)c1 [EMU107, (R)-1-(3,5-dimethylpyridin-2-yl)-N-methyl-N-((5-(piperazin-1-yl)-1,2,3,4-tetrahydroisoquinolin-3-yl)methyl)methanamine] | 21.4
10 | Cc1nc(CN(CCCCN)C[C@H]2Cc3ccccc3CN2)cs1 [EMU110, (R)—N1-((2-methylthiazol-4-yl)methyl)-N1-((1,2,3,4-tetrahydroisoquinolin-3-yl)methyl)butane-1,4-diamine] | > 33300
11 | NCCCCN(Cc1nccs1)C[C@H]1Cc2ccccc2CN1 [EMU111, (R)—N1-((1,2,3,4-tetrahydroisoquinolin-3-yl)methyl)-N1-(thiazol-2-ylmethyl)butane-1,4-diamine] | > 33300
12 | NC[C@H]1CC[C@H](CN(C[C@H]2Cc3ccccc3CN2)[C@H]2CCCc3cccnc32)CC1 [EMU121] | 343
13 | Cc1cccnc1CN(C)C[C@H]1Cc2c(cccc2N2CCNCC2)CN1 [EMU127, (R)—N-methyl-1-(3-methylpyridin-2-yl)-N-((5-(piperazin-1-yl)-1,2,3,4-tetrahydroisoquinolin-3-yl)methyl)methanamine] | 91.2
14 | Cc1ccc(CN(C)C[C@H]2Cc3c(cccc3N3CCNCC3)CN2)nc1 [EMU130, (R)—N-methyl-1-(5-methylpyridin-2-yl)-N-((5-(piperazin-1-yl)-1,2,3,4-tetrahydroisoquinolin-3-yl)methyl)methanamine] | 510
15 | CN(C[C@H]1Cc2c(cccc2N2CCN3CCC[C@H]3C2)CN1)[C@H]1CCCc2cccnc21 [EMU160] | 2.92

Other lines, results leading:

Row | IC50 [nM] | Compound
16 | 29.6 | CN1CCN(c2cccc3c2C[C@H](CN(C)[C@H]2CCCc4cccnc42)NC3)CC1 [EMU116]
17 | 26.6 | c1cnc2c(c1)CCC[C@@H]2N(CC1CC1)C[C@H]1Cc2c(cccc2N2CCNCC2)CN1 [EMU119]
18 | 498 | FC1(F)CCC(CN(C[C@H]2Cc3c(cccc3N3CCNCC3)CN2)[C@H]2CCCc3cccnc32)CC1 [EMU120]
19 | 227 | NCC1=C(CN(C[C@H]2Cc3ccccc3CN2)[C@H]2CCCc3cccnc32)CCCC1 [EMU124]
20 | 79.9 | C/C(CN(C[C@H]1Cc2ccccc2CN1)[C@H]1CCCc2cccnc21)=C(\F)CN [EMU125]
21 | 1880 | C/C(CN(C[C@H]1Cc2ccccc2CN1)[C@H]1CCCc2cccnc21)=C(/F)CN [EMU126]
22 | 146 | CN(C[C@H]1Cc2c(cccc2N2C[C@@H]3C[C@H]2CN3)CN1)C1CCCc2cccnc21 (stereo partly drawn) [EMU135]
23 | 33.9 | CN(C[C@H]1Cc2c(cccc2N2CCNC(C)(C)C2)CN1)[C@H]1CCCc2cccnc21 [EMU136]
24 | 28.3 | C/C(CN)=C(\F)CN(CC1Cc2ccccc2CN1)[C@H]1CCCc2cccnc21 (stereo partly drawn) [EMU140]
25 | 43.7 | C/C(CN)=C(/F)CN(C[C@H]1Cc2ccccc2CN1)[C@H]1CCCc2cccnc21 [EMU141]
26 | 98 | FC1(F)CCC(NC/C=C\CN(C[C@H]2Cc3ccccc3CN2)[C@H]2CCCc3cccnc32)CC1 [EMU143]
27 | 3100 | Cc1ccc(CN(CCCN2CCNCC2)C[C@H]2Cc3ccccc3CN2)nc1 [EMU148, (R)—N-((5-methylpyridin-2-yl)methyl)-3-(piperazin-1-yl)-N-((1,2,3,4-tetrahydroisoquinolin-3-yl)methyl)propan-1-amine]
28 | 92.1 | Cc1cccnc1CN(CCCN1CCNCC1)C[C@H]1Cc2ccccc2CN1 [EMU149, (R)—N-((3-methylpyridin-2-yl)methyl)-3-(piperazin-1-yl)-N-((1,2,3,4-tetrahydroisoquinolin-3-yl)methyl)propan-1-amine]
29 | 64.6 | CC1(C)CCC(NC/C=C/CN(C[C@H]2Cc3ccccc3CN2)[C@H]2CCCc3cccnc32)CC1 [EMU153, (E)-N1-(4,4-dimethylcyclohexyl)-N4-(((R)-1,2,3,4-tetrahydroisoquinolin-3-yl)methyl)-N4-((S)-5,6,7,8-tetrahydroquinolin-8-yl)but-2-ene-1,4-diamine]
30 | 82.1 | FC1(F)CCC(NC/C=C/CN(C[C@H]2Cc3ccccc3CN2)[C@H]2CCCc3cccnc32)CC1 [EMU154, (E)-N1-(4,4-difluorocyclohexyl)-N4-(((R)-1,2,3,4-tetrahydroisoquinolin-3-yl)methyl)-N4-((S)-5,6,7,8-tetrahydroquinolin-8-yl)but-2-ene-1,4-diamine]
31 | 15.5 | C(=C\CN(C[C@H]1Cc2ccccc2CN1)[C@H]1CCCc2cccnc21)/CNC1CCOCC1 [EMU155, (E)-N1-(tetrahydro-2H-pyran-4-yl)-N4-(((R)-1,2,3,4-tetrahydroisoquinolin-3-yl)methyl)-N4-((S)-5,6,7,8-tetrahydroquinolin-8-yl)but-2-ene-1,4-diamine]
32 | 364 | CC(C)N(C[C@H]1Cc2c(cccc2N2CCNCC2)CN1)[C@H]1CCCc2cccnc21 [EMU163]
33 | 33.7 | Cc1cccnc1CN(CCCN1CCNCC1)C[C@H]1Cc2c(cccc2N2CCNCC2)CN1 [EMU164, (R)—N-((3-methylpyridin-2-yl)methyl)-3-(piperazin-1-yl)-N-((5-(piperazin-1-yl)-1,2,3,4-tetrahydroisoquinolin-3-yl)methyl)propan-1-amine]
34 | 115 | Cc1ccc(CN(CCCCN)C[C@H]2Cc3c(cccc3N3CCNCC3)CN2)nc1 [EMU165, (R)—N1-((5-methylpyridin-2-yl)methyl)-N1-((5-(piperazin-1-yl)-1,2,3,4-tetrahydroisoquinolin-3-yl)methyl)butane-1,4-diamine]
35 | 9.88 | Cc1cccnc1CN(CCCCN)C[C@H]1Cc2c(cccc2N2CCNCC2)CN1 [EMU166, (R)—N1-((3-methylpyridin-2-yl)methyl)-N1-((5-(piperazin-1-yl)-1,2,3,4-tetrahydroisoquinolin-3-yl)methyl)butane-1,4-diamine]

Same assay, conditions: CXCR4 Ca^2+ Flux IC50, CCRF-CEM cells expressing endogenous CXCR4, stimulated with 4 nM SDF-1α

Row | Compound | IC50 [nM]
36 | c1cnc2c(c1)CCC[C@@H]2N(CCCN1CCNCC1)Cc1cc2ccccc2cn1 [EMU168] | 17.3
